Results on 1 compound are retold here after ChEMBL document CHEMBL5614415, “Recent advances and challenges of revolutionizing drug-resistant tuberculosis treatment” (Eur J Med Chem, 2024).

Usually MIC50 stands for the lowest concentration that inhibits either 50% of growth or 50% of the strains tested, depending on the study.

Bounds are passed on as bounds.

This assay relates to Mycobacterium tuberculosis variant bovis. In words: Antimycobacterial activity against Mycobacterium bovis BCG ATCC 35734 assessed as bacterial growth inhibition incubated for 15 days by resazurin based reduction assay. Format: functional. Particulars: BCG ATCC 35734, 360 h, time 15 day. In general terms: The colour change of resazurin is a common sign of viable cells or microbes.

In the case of `COc1cc([C@](O)(CCN(C)C)[C@@H](c2cc3cc(Br)ccc3nc2OC)c2cccc(OC)c2F)cc(OC)n1` [TBAJ-587], the MIC50 is below 6 ng/mL.
